Measurements as given in US12703685B2, “Crystalline forms of solvates of tryptophan derivatives, compositions comprising them and uses thereof” (GALIMEDIX THERAPEUTICS INC., priority 2020, dated 2026).
Square brackets hold non-standard residues; d marks the D form. Peptide text beside a SMILES is read from it. Aib = CC(C)(N)C(=O)O

How the values were obtained:
[1] = 50° C.
[2] = Hygroscopicity at 58-60% relative humidity; format: physicochemical; conditions: 20-25° C.
[3] = Stability test of the crystalline salt at 50° C.; format: physicochemical; conditions: 48 hours
[4] = DSC heating above the melting point, residue analyzed by TLC; format: physicochemical; conditions: DSC heating cycle
Source text: During the second heating cycle the peak of melting was missing, only the high temperature decomposition was observed. […]

[5] = Solubility in water
[6] = Oral bioavailability; conditions: in vivo, rodents
Experimental: In some embodiments a pharmaceutical composition of the invention is an oral administration form. […] In some embodiments, the oral availability of the pharmaceutical composition of the invention is in the range of 10%. In another embodiment, the oral availability of the pharmaceutical composition of the invention is above 10%. In some embodiments the pharmaceutical composition is administered once a day, twice a day or three times a day.

Row | stability of 70 w/w % aqueous solution (degradation) ([1]; 48 hours) | thermal stability of 70 w/w % solution in water (decomposition by TLC) ([1]; N2 atmosphere, 24 hrs) | hygroscopicity: weight increase of crystals ([2]; 24 hours) [%] | hygroscopicity: weight increase of crystals ([2]; 48 hours) [%] | stability of crystalline salt (degradation) [3] | decomposition after heating above the melting point [4] | solubility of crystalline forms [5] | Solubility at 24° C. ([5]; deionized water, 24° C., stirred 1 hr, filtered, filtrate evaporated) [w/w %] | solubility in water (concentration of solution) ([5]; deionized water, room temperature) [w/w %] | bioavailability [6] [%] | Structure (SMILES)
1 | no degradation was observed | No traces of decomposition | 2.64 | 3.4 | no degradation was observed | no decomposition | – | – | – | – | CC(C)(NC(=O)[C@H](N)Cc1c[nH]c2ccccc12)C(=O)O [UB-18813] (H-[dW]-[Aib]-OH)
2 | – | – | – | – | – | – | very poor solubility | 1.3 | 1.3 | ~5 | CC(C)(NC(=O)[C@H](N)Cc1c[nH]c2ccccc12)C(=O)O [compound (1)] (H-[dW]-[Aib]-OH)
